One may read the half-life as the time needed for the level to fall by half in the phase considered. The IC50 is the concentration at which inhibition is half-maximal.

The record followed here is US20260049077A1, “Neurotrophic Receptor Tyrosine Kinase (NTRK) Inhibitors and Methods Using Same” (Baylor College of Medicine, priority 2022, published 2026).

For one data set, the system named is endometriotic lesions. Kind of data set: Endometriosis mouse model, lesion efficacy. The class given is in vivo. As to the method: FIGS. 17A-17F depict the robust efficacy of the inhibitory compounds of the present disclosure as NTRK2 inhibitors for inhibition of endometriotic lesion growth in mice utilizing CDD-3132 as an example. FIG. 17A provides a schematic overview of the experiment performed. FIGS. 17B-17C provide photographs showing excised lesions with administration of a control (FIG. 17B) or CDD-3132 (10 mg/kg/day) (FIG. 17C).
(§1) In one aspect, the present disclosure provides exemplary data relating to the administration of NTRK2 inhibitors in a mouse model of endometriosis (FIG. 14). In certain embodiments, the recipient mouse is administered the NTRK2 inhibitor and/or controls on day 14 after intraperitoneal injection of endometrium of the donor mouse. In certain embodiments, the recipient mouse is sacrificed and quantitatively assessed on day 28.

Data set [1] can be described thus: Metabolic stability in human liver microsomes (HLM).
A short description of data set [2]: Metabolic stability in mouse liver microsomes (MLM).
A further data set deals with NTRK2 (Homo sapiens (Human), UniProt Q16620). The experiment in a line: NTRK2 inhibition (IC50). It counts as biochemical.
For another data set, the target named is NTRK3 (Homo sapiens (Human), UniProt Q16288). Kind of data set: NTRK3 inhibition (IC50). To be noted: read-out: NTRK3 IC50.
For another data set, the target named is NTRK1 (Homo sapiens (Human), UniProt P04629). The experiment in a line: NTRK1 inhibition (IC50). To be noted: read-out: NTRK1 IC50.
A short description of data set [3]: Brain uptake in mice 24 hours post-administration. It counts as in vivo, mouse. The following applies: mouse, brain, 24 h, read-out: Brain Concentration at 24 h (ng/mg).
Data set [4] is described as follows: Endometriosis mouse model, liver and kidney toxicity (organ weight, ALT, AST). The class given is in vivo. Further details: ALT (Mean ± SD) / AST (Mean ± SD): unit not given here. To be noted: for effect on liver and/or kidney weight and/or serum elevation of ALT and AST: 10 mg/kg, mice with endometriotic lesions. The method, then: as §1
Where [5] appears, read: 10 mg/kg, compared to vehicle control.
Where [6] appears, read: i.p. dose of 10 mg/kg/day for 14 days.

Molecules are shown by their SMILES.

NTRK2, sequence (Q16620 32-822): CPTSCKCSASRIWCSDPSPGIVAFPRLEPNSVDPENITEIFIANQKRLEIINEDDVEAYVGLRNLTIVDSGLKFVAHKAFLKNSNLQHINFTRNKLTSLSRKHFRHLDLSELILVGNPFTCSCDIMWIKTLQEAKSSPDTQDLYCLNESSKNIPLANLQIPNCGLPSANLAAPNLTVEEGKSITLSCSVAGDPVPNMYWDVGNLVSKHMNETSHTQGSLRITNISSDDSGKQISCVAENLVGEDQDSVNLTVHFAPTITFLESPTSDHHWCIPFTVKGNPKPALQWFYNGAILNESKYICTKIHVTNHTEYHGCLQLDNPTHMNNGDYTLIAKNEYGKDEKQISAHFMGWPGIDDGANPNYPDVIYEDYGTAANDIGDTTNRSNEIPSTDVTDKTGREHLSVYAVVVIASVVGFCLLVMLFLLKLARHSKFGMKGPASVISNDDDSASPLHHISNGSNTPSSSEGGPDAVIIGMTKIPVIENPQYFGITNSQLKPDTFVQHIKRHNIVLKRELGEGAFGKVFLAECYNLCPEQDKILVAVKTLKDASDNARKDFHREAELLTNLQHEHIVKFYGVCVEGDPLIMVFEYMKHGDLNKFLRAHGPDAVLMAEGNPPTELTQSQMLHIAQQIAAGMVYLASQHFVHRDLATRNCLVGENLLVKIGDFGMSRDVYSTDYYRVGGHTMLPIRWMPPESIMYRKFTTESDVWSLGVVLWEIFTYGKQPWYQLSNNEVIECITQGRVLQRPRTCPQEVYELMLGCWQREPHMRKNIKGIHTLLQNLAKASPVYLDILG
NTRK3, sequence (Q16288 32-839): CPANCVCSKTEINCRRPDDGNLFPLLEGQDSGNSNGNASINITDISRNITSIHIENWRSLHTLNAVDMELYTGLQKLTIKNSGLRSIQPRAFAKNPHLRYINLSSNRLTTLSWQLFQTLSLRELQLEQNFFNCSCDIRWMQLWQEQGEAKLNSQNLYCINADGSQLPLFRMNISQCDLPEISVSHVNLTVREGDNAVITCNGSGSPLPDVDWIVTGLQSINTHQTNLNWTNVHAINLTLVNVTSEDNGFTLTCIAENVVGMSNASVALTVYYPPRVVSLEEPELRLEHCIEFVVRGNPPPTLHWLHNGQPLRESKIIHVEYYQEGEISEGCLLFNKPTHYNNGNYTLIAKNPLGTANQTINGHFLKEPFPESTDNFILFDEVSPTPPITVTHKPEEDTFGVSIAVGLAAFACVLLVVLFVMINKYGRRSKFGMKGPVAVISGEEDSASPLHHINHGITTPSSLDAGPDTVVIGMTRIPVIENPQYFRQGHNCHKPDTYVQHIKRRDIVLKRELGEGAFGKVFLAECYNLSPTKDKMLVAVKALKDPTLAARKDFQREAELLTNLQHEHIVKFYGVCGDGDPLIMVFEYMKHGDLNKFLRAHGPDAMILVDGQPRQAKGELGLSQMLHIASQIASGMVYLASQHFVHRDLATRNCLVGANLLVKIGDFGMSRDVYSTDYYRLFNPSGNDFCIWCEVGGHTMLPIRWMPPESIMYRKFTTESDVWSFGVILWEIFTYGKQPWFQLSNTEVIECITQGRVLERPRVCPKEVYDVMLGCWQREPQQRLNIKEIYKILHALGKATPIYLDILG
NTRK1, sequence (P04629 33-796): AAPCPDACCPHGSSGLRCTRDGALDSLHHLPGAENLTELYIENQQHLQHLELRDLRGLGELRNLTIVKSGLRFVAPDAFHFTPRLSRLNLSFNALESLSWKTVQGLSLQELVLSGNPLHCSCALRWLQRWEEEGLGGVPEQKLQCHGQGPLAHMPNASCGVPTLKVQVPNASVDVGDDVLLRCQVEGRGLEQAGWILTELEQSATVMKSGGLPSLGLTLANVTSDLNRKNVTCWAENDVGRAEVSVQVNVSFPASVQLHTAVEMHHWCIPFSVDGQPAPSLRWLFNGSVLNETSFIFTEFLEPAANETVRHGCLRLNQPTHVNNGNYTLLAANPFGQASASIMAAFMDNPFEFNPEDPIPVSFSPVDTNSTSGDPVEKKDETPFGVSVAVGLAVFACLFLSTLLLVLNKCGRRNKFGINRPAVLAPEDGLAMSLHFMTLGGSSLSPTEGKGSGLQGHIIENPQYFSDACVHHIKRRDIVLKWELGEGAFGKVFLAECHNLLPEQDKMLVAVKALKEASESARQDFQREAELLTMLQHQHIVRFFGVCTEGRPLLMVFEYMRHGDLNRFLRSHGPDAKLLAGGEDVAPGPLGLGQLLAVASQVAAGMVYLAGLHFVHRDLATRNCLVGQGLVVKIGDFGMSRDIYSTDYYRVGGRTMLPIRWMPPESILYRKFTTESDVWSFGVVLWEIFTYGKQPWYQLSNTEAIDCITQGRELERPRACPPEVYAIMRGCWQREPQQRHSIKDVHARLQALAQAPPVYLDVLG

Consider `O=C(Nc1ccccc1C(=O)NC1CCCCNC1=O)c1cc2ccccc2s1` (stereo not shown) [ANA-12, reference compound], for which the endometriotic lesion regression entry with endometriotic lesions (mice) is “endometriotic lesion regression”.
In the case of `O=C(Nc1ccccc1C(F)(F)F)N(Cc1ccn2nccc2c1)C1CCC1` [CDD-2274, 1-cyclobutyl-1-(pyrazolo[1,5-a]pyridin-5-ylmethyl)-3-(2-(trifluoromethyl)phenyl)urea], the half-life in data set [1] amounted to 0.192 h; in data set [2], 0.0833 h. In addition, the results for the concentration for half-maximal inhibition (IC50) against NTRK2, on NTRK3 and at NTRK1 were 4.5 nM, 5.3 nM and 12.4 nM, respectively.
With `O=C(Nc1ccc(OC(F)(F)F)cc1)N(Cc1ccn2nccc2c1)C1CC1` [CDD-2275, 1-cyclopropyl-1-(pyrazolo[1,5-a]pyridin-5-ylmethyl)-3-(4-(trifluoromethoxy)phenyl)urea], the values for the half-life in data set [1] and in data set [2] were 1.5 h and 0.933 h, respectively. At NTRK2, this compound had an IC50 of 46 nM.
The matching figures for `O=C(Nc1ccc(OC(F)(F)F)cc1)N(Cc1ccn2nccc2c1)C1CCCC1` [CDD-2276, 1-cyclopentyl-1-(pyrazolo[1,5-a]pyridin-5-ylmethyl)-3-(4-(trifluoromethoxy)phenyl)urea]: 0.233 h, 0.583 h and 19 nM.
As to `CC(C)N(Cc1ccn2ncc(F)c2c1)C(=O)Nc1ccc(OC(F)(F)F)cc1` [CDD-2734, 1-((3-fluoropyrazolo[1,5-a]pyridin-5-yl)methyl)-1-isopropyl-3-(4-(trifluoromethoxy)phenyl)urea], the figures for the half-life in data set [1] and in data set [2] were 0.967 h and 0.35 h, respectively. Moreover, the concentration for half-maximal inhibition (IC50) was determined as 5.3 nM against NTRK2 and 36 nM on NTRK1.
With `NC(=O)c1cnn2ccc(CN(C(=O)Nc3ccc(OC(F)(F)F)cc3)C3CC3)cc12` [CDD-2738, 5-((1-cyclopropyl-3-(4-(trifluoromethoxy)phenyl)ureido)methyl)pyrazolo[1,5-a]pyridine-3-carboxamide], the half-life came out at 6.35 h in data set [1] and 3.73 h in data set [2]. Further, the results for the IC50 against NTRK2, on NTRK3 and at NTRK1 were 0.52 nM, 1.51 nM and 7.5 nM, respectively. Also, the concentration at 24 h in data set [3] was found to be 2300 ng/g.
As to `CC(C)N(Cc1ccn2ncc(C#N)c2c1)C(=O)Nc1ccc(OC(F)(F)F)cc1` [CDD-2741, 1-((3-cyanopyrazolo[1,5-a]pyridin-5-yl)methyl)-1-isopropyl-3-(4-(trifluoromethoxy)phenyl)urea], the half-life in data set [1] was 2.13 h; in data set [2], 0.683 h. The IC50 at NTRK2 was 5.8 nM; at NTRK3, 4.4 nM; on NTRK1, 11.7 nM.
Turning to `CC(C)N(Cc1ccn2ncc(C(=N)NO)c2c1)C(=O)Nc1ccc(OC(F)(F)F)cc1` [CDD-2744, N-hydroxy-5-((1-isopropyl-3-(4-(trifluoromethoxy)phenyl)ureido)methyl)pyrazolo[1,5-a]pyridine-3-carboximidamide], the results for the half-life in data set [1] and in data set [2] were 6.47 h and 2.02 h, respectively. The IC50 on NTRK2 came to 1.7 nM; on NTRK3, 2.9 nM; on NTRK1, 18.1 nM.
The matching figures for `CN(Cc1ccn2ncc(C(N)=O)c2c1)C(=S)Nc1ccc(OC(F)(F)F)cc1` [CDD-3118, 5-((1-methyl-3-(4-(trifluoromethoxy)phenyl)thioureido)methyl)pyrazolo[1,5-a]pyridine-3-carboxamide]: 6.37 h, 11.5 h, 19 nM, 21.5 nM and 151 nM.
Regarding `NC(=O)c1cnn2ccc(CNC(=S)Nc3ccc(OC(F)(F)F)cc3)cc12` [CDD-3131, 5-((3-(4-(trifluoromethoxy)phenyl)thioureido)methyl)pyrazolo[1,5-a]pyridine-3-carboxamide], the figures for the half-life in data set [1] and in data set [2] were 3.95 h and 5.85 h, respectively. Besides, the IC50 at NTRK2 was 132 nM; at NTRK3, 153 nM; on NTRK1, 749 nM.
Consider `CN(Cc1ccn2ncc(C(N)=O)c2c1)C(=O)COc1ccc(OC(F)(F)F)cc1` [CDD-3132, 5-((N-methyl-2-(4-(trifluoromethoxy)phenoxy)acetamido)methyl)pyrazolo[1,5-a]pyridine-3-carboxamide], for which the half-life in data set [1] was 11.5 h; in data set [2], 11.8 h. Besides, the “number, volume and mass of lesions” value with endometriotic lesions (setting [5]) was “reduction of lesions, volume of lesions, and mass of lesions”. Further, in the data set on endometriotic lesions (setting [5]), the “size of endometriotic lesions” value is reported as “decreased size of endometriotic lesions”. Also, the endometriotic lesion growth result in the data set on endometriotic lesions (10 mg/kg, excised lesions) is “inhibiting endometriotic lesion growth”. The “proliferation, vascularization, macrophage infiltration, inflammation within endometriotic lesions” value in the data set with endometriotic lesions (10 mg/kg, H&E staining, confocal microscopy) is given as “reduction of proliferation, vascularization, macrophage infiltration, and/or inflammation”. Moreover, the half-maximal inhibitory concentration (IC50) at NTRK2 was 517 nM; at NTRK3, 1370 nM; on NTRK1, 4560 nM. Also, the “effect on liver and/or kidney weight and/or serum elevation of ALT and AST” value in data set [4] is recorded as “little to no effect”. Moreover, in data set [4] (setting [6]), the “ALT (Mean ± SD)” value is reported as 20.5 ± 12.6. The “AST (Mean ± SD)” value in data set [4] (setting [6]) is listed as 33.5 ± 20.6. Moreover, in data set [4] (mice treated for 14 days), the “impact on liver and kidney weights” value is reported as “no significant impact”.
With `CC(C)N(Cc1ccn2ncc(C(N)=O)c2c1)C(=O)COc1ccc(OC(F)(F)F)cc1` [CDD-3133, 5-((N-isopropyl-2-(4-(trifluoromethoxy)phenoxy)acetamido)methyl)pyrazolo[1,5-a]pyridine-3-carboxamide], the results for the half-life in data set [1] and in data set [2] were 10 h and 3.08 h, respectively. Moreover, the IC50 on NTRK2 was found to be 4.3 nM; on NTRK3 it was 10.1 nM; at NTRK1, 16.6 nM.
The matching figures for `CC(C)N(Cc1ccn2ncc(C(N)=O)c2c1)C(=O)COc1ccc(C(C)(C)C)cc1` [CDD-3184, 5-((2-(4-(tert-butyl)phenoxy)-N-isopropylacetamido)methyl)pyrazolo[1,5-a]pyridine-3-carboxamide]: 1.78 h, 0.102 h, 6.7 nM, 15.3 nM and 61 nM.
For `CC(C)N(Cc1ccn2ncc(C(N)=O)c2c1)C(=O)CNc1ccc(OC(F)(F)F)cc1` [CDD-3254, 5-((N-isopropyl-2-((4-(trifluoromethoxy)phenyl)amino)acetamido)methyl)pyrazolo[1,5-a]pyridine-3-carboxamide], the values for the half-life in data set [1] and in data set [2] were 3.22 h and 2.38 h, respectively. Also, the values for the half-inhibitory concentration (IC50) on NTRK2, on NTRK3 and at NTRK1 were 59 nM, 142 nM and 277 nM, respectively.
On to `C=C(C)c1ccc(OCC(=O)N(Cc2ccn3ncc(C(N)=O)c3c2)C(C)C)cc1` [CDD-3255, 5-((N-isopropyl-2-(4-(prop-1-en-2-yl)phenoxy)acetamido)methyl)pyrazolo[1,5-a]pyridine-3-carboxamide], for which the half-life was 0.75 h in data set [1] and 0.317 h in data set [2]. Further, the IC50 at NTRK2 amounted to 31.5 nM; on NTRK3, 54 nM; on NTRK1, 357 nM.
As for `CC(=O)c1ccc(OCC(=O)N(Cc2ccn3ncc(C(N)=O)c3c2)C(C)C)cc1` [CDD-3256, 5-((2-(4-acetylphenoxy)-N-isopropylacetamido)methyl)pyrazolo[1,5-a]pyridine-3-carboxamide], the half-life in data set [1] and in data set [2] was > 3.33 h in each case. Besides, the IC50 at NTRK2 came to 223 nM; at NTRK3 it was 312 nM; at NTRK1, 1870 nM.
With `CC(=O)c1ccc(OCC(=O)N(C)Cc2ccn3ncc(C(N)=O)c3c2)cc1` [CDD-3257, 5-((2-(4-acetylphenoxy)-N-methylacetamido)methyl)pyrazolo[1,5-a]pyridine-3-carboxamide], the half-life in data set [1] and in data set [2] was > 3.33 h in each case. The IC50 turned out to be 10600 nM against NTRK2, 10900 nM on NTRK3 and 58200 nM on NTRK1.
Take `CN(Cc1ccn2ncc(C(N)=O)c2c1)C(=O)CNc1ccc(OC(F)(F)F)cc1` [CDD-3258, 5-((N-methyl-2-((4-(trifluoromethoxy)phenyl)amino)acetamido)methyl)pyrazolo[1,5-a]pyridine-3-carboxamide]: the half-life in data set [1] was found to be 4.5 h; in data set [2] it was 5.63 h. The half-maximal inhibitory concentration (IC50) on NTRK2 turned out to be 963 nM; at NTRK3, 2320 nM; at NTRK1, 11000 nM.
Regarding `CC(C)(CO)n1cc(C(=O)c2cncc(NC(=O)Cc3ccc(Cl)cn3)c2)c2cnc(N)nc21` [PF-0672, reference compound], the “effect on liver and/or kidney weight and/or serum elevation of ALT and AST” value in data set [4] is listed as “little to no effect”.
